The text below walks through data of patent US10172915B2, “Methods and compositions for activation of sirtuins with Annexin A1 peptides” (Duke University, priority 2013, dated 2019).

The test system of assay [1] is rat coronary ligation models. The note with it: cited from earlier work.
Assay [2] has as its system ventricular contractile function ex vivo. The note with it: cited from earlier work.
Assay [3] concerns SIRT3. Nature of the assay: Myocardial SIRT3 in DHCA rats (Western blot, confocal microscopy). The assay is classed as in vivo, rat. The note with it: for Expression (44-kDa) and activation (28-kDa) of myocardial SIRT3: 60 min DHCA at 18° C., 2 mg/kg iv, 3 hours post-perfusion, p<0.05 vs vehicle; for SIRT3 level and mitochondrial localization in rat myocardium (confocal): 60 min DHCA, 3 h reperfusion. As to the method: (§1) Proteins were separated by electrophoresis on SDS-PAGE and then transferred onto PVDF-Plus membrane (Millipore). After being blocked with 5% milk, the immunoblots were probed with appropriate antibodies to SIRT3 (Cell Signaling or Abcam), MPP (Santa Cruz), MnSOD, P-AMPK, COXIV, GAPDH (Cell Signaling), and caspase-3 (Cell Signaling, MA) overnight at 4° C. followed by incubation with the corresponding secondary antibodies at room temperature for 1 h. The blots were visualized with the SuperSignal West Dura Extended Duration Substrate (Thermo Scientific) by a gel imaging system (Alpha Innotech).
(§2) Separate groups of animals underwent 60 minutes of DHCA (18° C.) with a similar treatment design, with animals randomly assigned to sham, CPB/DHCA (Vehicle), DHCA+ANXA1sp (ANXA1sp), or DHCA+scrambled peptide (scrPEP). All rats were subjected to 60 minutes DHCA at 18° C. and received either vehicle (1% DMSO saline), ANXA1sp (total 2 mg/kg), or scrPEP (total 2 mg/kg) iv 1 h before CPB and 1 h after reperfusion (FIG. 10C). Sham operated animals were only cannulated/without CPB/DHCA as baseline control. At 3, 6, and 24 h of post-perfusion, heart and serum samples were harvested. Blood samples were collected and stored at −80° C. until analysis. A small portion of heart tissue from each animal was immediately fixed in 10% buffered formalin, embedded in paraffin, and sectioned for immunostaining, confocal colocalization microscopy, and apoptotic TUNEL staining. Myocardial whole-tissue lysates were obtained at the end of each experiment according to the manufacturer's protocol (Affymetrix). The remaining heart tissues were stored at −80° C. FIG. 10 depicts a diagram of the rat surgical model and schematics of the experimental protocols.
Confocal studies were performed as described previously. Paraffin sections were deparaffinized using xylene and descending grades of ethanol, pretreated with microwave irradiation (350 W, for 5 min in 200 ml of 0.1M Citrate buffer, pH 6.0). Tissue sections were incubated with rabbit monoclonal IgG anti-SIRT3 (Cell Signaling) and mouse monoclonal IgG anti-COXIV (Cell Signaling) at 4° C. overnight. After washing, tissue sections were incubated with Alexa555 conjugated donkey anti-mouse IgG and Alexa488 conjugated goat anti-rabbit IgG (Molecular Probes) for 1 h at RT. Images were acquired with a confocal microscope (Zeiss Invert 510 Microscope). The control experiments were performed using mouse IgG and/or rabbit IgG.
For orientation: Immunoblotting shows a protein as a band on a membrane.

Assay [4] relates to AMP-activated protein kinase (AMPK). Kind of assay: AMPK phosphorylation in ARVCs after OGD/reoxygenation. The format is cell-based, rat. The note with it: 2 h OGD, 3 h reoxygenation. The method, then: (§3) After 24 h incubation, ARVCs were pre-treated with known concentrations of ANXA1sp or scrPEP in growth medium for 1 h, and subjected to 2 h oxygen-glucose-deprivation (OGD: DMEM no glucose, 85% N2/10% H2/5% CO2) in a OGD station chamber/Anaerobic System (Farma Scientific), followed by reoxygenation with 10 μM ANXA1sp or scrPEP in growth medium for 3, 6, and 24 h in a 37° C. and 5% CO2 growth chamber, respectively.
as §1

For assay [5], the system named is mitochondrial protein lysine-acetylation. Nature of the assay: Mitochondrial protein lysine acetylation in ARVCs after OGD/reoxygenation. The assay is classed as cell-based, rat. The note with it: ARVCs following OGD/reoxygenation. The method, then: as §3
For another assay, the system named is reactive oxygen species. Nature of the assay: Reactive oxygen species in hearts of DHCA rats (ELISA). The note with it: 60 min DHCA, 6 h reperfusion. The assay is classed as in vivo, rat. The method, then: (§4) FIG. 15. Increased SIRT3 activity with ANXA1sp treatment is associated with reduced protein lysine acetylation in left ventricular myocardial lysates from rats following 60 min DHCA and 6 h reperfusion (panel A). This included deacetylation of MnSOD (known to increase its reactive oxygen species scavenging activity). Acetylated proteins were immunoprecipitated with anti-acetyl lysine antibody, and deacetylated MnSOD levels were assessed in the supernatant via Western blot (panel B). […] Results presented as mean±SD (n=5/group), *P<0.05. anti-Ac-K, acetylated lysine antibody; IP, immuno-precipitation; WB, Western blot; ROS, reactive oxygen species; MnSOD, manganese superoxide dismutase.
(§5) Separate groups of animals underwent 60 minutes of DHCA (18° C.) with a similar treatment design, with animals randomly assigned to sham, CPB/DHCA (Vehicle), DHCA+ANXA1sp (ANXA1sp), or DHCA+scrambled peptide (scrPEP). All rats were subjected to 60 minutes DHCA at 18° C. and received either vehicle (1% DMSO saline), ANXA1sp (total 2 mg/kg), or scrPEP (total 2 mg/kg) iv 1 h before CPB and 1 h after reperfusion (FIG. 10C). Sham operated animals were only cannulated/without CPB/DHCA as baseline control. At 3, 6, and 24 h of post-perfusion, heart and serum samples were harvested. Blood samples were collected and stored at −80° C. until analysis. […]
In general terms: An ELISA detects its analyte on a solid surface through an enzyme-linked reagent.

Assay [6] has as its system SIRT3. Kind of assay: SIRT3 expression in ARVCs after OGD/reoxygenation (Western blot, confocal microscopy). The format is cell-based, rat. As to the method:
as §3, §1
Confocal studies were performed as described previously. MitoTraker Deep Red FM (Invitrogen) was added into culture medium to make the final concentration of 0.4 μM and incubated at 37° C. for 45 min. After being washed, fixed, permeabilized, and blocked, rabbit monoclonal IgG anti-SIRT3 (Abcam) was added at 4° C. for overnight. Cells were subsequently incubated with Alexa-488 conjugated goat anti-rabbit IgG (Molecular Probes) for 1 h at RT. Images were acquired with a confocal microscope (Zeiss Invert 510 Microscope).

The test system of the next assay is NF-κB p65 subunit. Kind of assay: NF-κB p65 acetylation and NF-κB activity in DHCA rats. The assay is classed as in vivo, rat. The method, then:
FIG. 18. Increased SIRT1 expression with ANXA1sp treatment is also associated with reduced acetylation of NF-κB p65 subunit (at lysine 310 residue) following DHCA in rats. Rats underwent 1 hour DHCA at 18° C. and received either vehicle or ANXA1sp (2 mg/kg, iv) followed by 6 hours reperfusion. Levels of acetylated NF-κB p65 were determined in left ventricular myocardium tissue lysates by Western blot. Results presented as mean±SD (n=4), *p<0.001. DHCA, deep hypothermic circulatory arrest; P65-Ac(K310), lysine 310 acetylated NF-κB p65 subunit. GAPDH used as loading control.
as §2

The subject of assay [7] is rats rendered acutely hyperglycemic, cardioplegic arrest. Kind of assay: Rat CPB/CA model in acutely hyperglycemic rats. The note with it: blood glucose>300 mg/dl, Dextrose 25%, 5 gm/kg. The format is in vivo. As to the method: Because of the known effects of hyperglycemia to blunt cardioprotective mechanisms, the effects of ANXA1sp were further tested in rats rendered acutely hyperglycemic (blood glucose>300 mg/dl) through perioperative administration of Dextrose (25%, 5 gm/kg). […] Physiological parameters during the conduct of CPB/CA were similar between treatment groups.

For assay [8], the system named is rats, deep hypothermic circulatory arrest. Kind of assay: Rat model of deep hypothermic circulatory arrest (DHCA), myocardial injury. The format is in vivo. The note with it: 60 min DHCA. The method, then: as §2
The following endpoints were assessed: plasma cTnI and heart-type fatty acid binding protein (HFABP, ELISA, Life Diagnosis); myocardial apoptosis as levels of cleaved caspase-3 (Western blot) and TUNEL assays (Roche); and echocardiographic left ventricular function. Myocardial levels of TNFα, IL-6, and myeloperoxidase (MPO) were analyzed by ELISA. SIRT3 and cytochrome c were measured in isolated mitochondria by Western blot.
Blood samples were collected from each rat at 24 h after CPB/DHCA. […] Cellular levels of ATP were measured by ELISA (Abeam).
TUNEL assay was performed using the In Situ Cell Death Detection Kit (Roche Molecular Biochemicals) according to manufacturer's protocol. […] The reaction was terminated with stop solution and fluorescent apoptotic signal was detected using a fluorescence microscope (Zeiss LSM 510 inverted confocal). Ten fields of each tissue section were randomly chosen and a total of 50 cells per field were counted. […]

A further assay deals with cellular levels of ATP. Kind of assay: Cellular ATP levels in ARVCs after OGD/reoxygenation. The assay is classed as cell-based, rat. As to the method:
as §3
(§6) Blood samples were collected from each rat at 24 h after CPB/DHCA. Samples were immediately cooled to 4° C. and centrifuged at 3,000 rpm for 10 minutes at 4° C. Serum was collected and stored at −80° C. until assay. Whole cell lysate from heart tissues was obtained according to manufacturer's instruction (Panomics) and used for measurement of pro-inflammatory cytokines IL-6, TNFα and MPO by an ELISA method (Thermo Scientific). Cellular levels of ATP were measured by ELISA (Abeam).

The test system of a further assay is myocardial levels of ATP. Nature of the assay: Myocardial ATP levels in DHCA rats. The note with it: 60 min DHCA, 3 h reperfusion. The assay is classed as in vivo, rat. The method, then: (§7) FIG. 16. […] Results presented as mean±SD (n=5), *P<0.05 and ^#P<0.01. P-AMPK, phosphorylated AMPK. GAPDH used as loading control.
as §6

For assay [9], the system named is protein lysine acetylation. Nature of the assay: Protein lysine acetylation in left ventricular myocardial lysates of DHCA rats. The assay is classed as in vivo, rat. The note with it: 60 min DHCA, 6 h reperfusion. The method, then: as §4, §5
In assay [10] the test system is adult rat ventricular cardiomyocytes with SIRT3 siRNA. Kind of assay: siRNA knock-down of SIRT3 in ARVCs with simulated IR, rescue. The format is cell-based. The note with it: simulated ischemia-reperfusion. As to the method: ARVC siRNA transfection: after 24 h of incubation with AW Medium (Cellutron Cat #M-8034) without antibiotics, ARVCs were transfected with a specific SIRT3-siRNA or a scrambled RNA (scrRNA) as control, according to manufacturer's protocol (Santa Cruz). Transfection efficiency was estimated by Western blotting of the target protein (A). ARVC, adult rat ventricular cardiomyocytes; OGD, oxygen-glucose deprivation; scrR, scrambled RNA; siR, SIRT3 siRNA; SP, ANXA1sp; V, vehicle control; scrR+V, scramble RNA with vehicle control; scrR+SP, scramble RNA with ANXA1sp; siR+V, SIRT3 siRNA with vehicle control; siR+SP, SIRT3 siRNA with ANXA1sp; cTnI, cardiac troponin I measured in supernatant. Results presented as mean±SD (n=3). GAPDH used as loading control.

The test system of assay [11] is AMP-activated protein kinase (AMPK). Kind of assay: AMPK phosphorylation in myocardium of DHCA rats. The note with it: 60 min DHCA, 3 h reperfusion. The format is in vivo, rat. As to the method:
as §7, §2

No end group written: not given here.

“Ac-Ala-Met-Val-Ser-Glu-Phe-Leu-Lys-Gln-Ala-Trp-Phe-Ile-Glu-Asn-Glu-Glu-Gln-Glu-Tyr-Val-Gln-Tyr-Val-Lys (Ac-AMVSEFLKQAWFIENEEQEYVQYVK) [Ac2-26, 25mer peptide derived from annexin 1, commercially available]”: the “Neutrophil dependent myocardial necrosis” value in assay [1] is listed as “inhibits neutrophil dependent myocardial necrosis”. Further, the “Post-ischemic recovery of ventricular contractile function” value in assay [2] is recorded as “improves post-ischemic recovery of ventricular contractile function”.

For Ac-Gln-Ala-Trp [ANXA1sp], in the assay on SIRT3 [3], the “Expression (44-kDa) and activation (28-kDa) of myocardial SIRT3” value is “significantly restored expression and activation of SIRT3”; the “SIRT3 level and mitochondrial localization in rat myocardium (confocal)” value was “robustly increased SIRT3 and was predominantly localized in the mitochondria”. The “Phosphorylation of AMPK” value in assay [4] was “increased phosphorylation of AMPK”. In addition, the Protein acetylation result in assay [5] is “significant reduction in protein acetylation”. For the same substance, the “Cellular levels of reactive oxygen species in hearts” value in the assay with reactive oxygen species is listed as “decreased cellular levels of reactive oxygen species”. The “SIRT3 full-length and short form proteins in cell lysates” value with SIRT3 [6] (ARVCs after OGD/reoxygenation, Western blot) was “significantly increased SIRT3 in both full-length and short form proteins”. The “SIRT3 expression in isolated mitochondria” value with SIRT3 [6] (ARVCs subjected to OGD) is listed as “increased SIRT3 expression in isolated mitochondria”. In the assay with SIRT3 [6] (cultured ARVCs, 10 μM, 2 h OGD, 3 h reoxygenation), the “SIRT3 in mitochondria by confocal microscopy” value was “significantly increased in mitochondria”. For the same substance, the “Acetylation of NF-κB p65 (K310)” value in the assay on NF-κB p65 subunit (1 hour DHCA, 2 mg/kg iv, 6 hours reperfusion) is “attenuated acetylation of NF-kB p65”. In addition, in the assay with NF-κB p65 subunit (DHCA rats), the NF-κB transcriptional activity result is “suppressed NF-κB transcriptional activity” and the “NF-κB-mediated gene expression of TNFα” value is on record as “significantly down-regulated”. For the same substance, in assay [7], the “Hyperglycemic exacerbation of myocardial injury and inflammation” value is recorded as “significantly attenuated”. Besides, the “Cleaved caspase-3 activity by Western blot” value in assay [8] is reported as “significantly decreased”. In assay [8] (24 h post-reperfusion), the “Myocardial apoptosis by TUNEL staining” value is reported as “significantly decreased myocardial apoptosis”. Besides, the “Serum cTnI (ELISA)” value in [8] (multiple reperfusion time points) was “significantly decreased”. Further, in the assay on cellular levels of ATP, the ATP concentrations result is “increased ATP concentrations”. Also, the “Myocardial levels of ATP” value in the assay with myocardial levels of ATP is “increased myocardial levels of ATP”. For the same substance, the “Protein acetylation in myocardial tissue homogenates” value in [9] is “significant reduction of protein acetylation”. Moreover, the “Rescue of increased cell necrosis and apoptosis after SIRT3 knock down” value in assay [10] is “partially rescued”. Also, the “Phosphorylation of AMPK (P-AMPK) in left ventricular myocardial lysates” value in assay [11] is listed as “increased phosphorylation of AMP-activated protein kinase”.

“Ac-W^10Q^11A^12 [scrPEP, reference compound]”: in the assay with SIRT3 [3], the “Expression (44-kDa) and activation (28-kDa) of myocardial SIRT3” value is reported as “had no such effects”; the “SIRT3 level and mitochondrial localization in rat myocardium (confocal)” value is “has no such effects”.
